Results reported in US20060040884A1, “Antisense oligonucleotides directed to genes regulated by trapoxin-induced HDAC inhibition” (priority 2001, published 2006).
Several values for one entry are separate records, joined by “and”; a condition that tells them apart may be missing. Equal values may be shown once. Marks after values point to notes of the source that are not given here. Square brackets hold non-standard residues; d marks the D form. Peptide text beside a SMILES is read from it. ξ: configuration not given here. Aoe(9ξ) = N[C@@H](CCCCCC(=O)C1CO1)C(=O)O; dPip = O=C(O)[C@H]1CCCCN1

System: H1299 cells
Assay: Microarray expression profiling of TPX- vs DMSO-treated H1299 cells (Affymetrix HU6800 and Incyte UniGem V arrays)
Assay type: cell-based, human
Conditions: 30 nM vs DMSO
Method: Cell Culture and Drug Treatments. […] H1299 cells at 60 to 80% confluence are treated with 30 nM TPX dissolved in dimethyl sulphoxide for a final concentration of 0.1% Me2SO in cell culture medium or 0.1% Me2SO for 0, 6, 12, and 18 h.
Incyte cDNA arrays. H1299 cells are treated with 30 nM TPX dissolved in Me2SO or Me2SO for 0, 6, 12 and 18 h. Final Me2SO concentrations were 0.1% in cell culture medium. Total RNA is extracted using TRIZOL reagent (Life Technologies, Rockville, Md.) and purified using RNAeasy reagents (Qiagen, Valencia Calif.). Poly (A)^+ RNA (mRNA) is prepared from total RNA using Oligotex columns (Qiagen, Valencia, Calif.) and the procedure is repeated twice to minimize contamination with ribosomal RNA. The mRNA concentrations are determined using RiboGreen RNA Quantitation kit (Molecular Probes, Eugene, Oreg.) and equal amounts of mRNA from each sample is used in labeling reactions that are performed by Synteni Division of Incyte Genomics, Inc. (Palo Alto, Calif.). Complementary DNAs are prepared by […] and labeled with Cy3-deoxyuridine triphosphate (Cy3) or Cy5-deoxyuridine triphosphate (Cy5) fluorescent nucleotides. cDNA samples from cells that are treated with Me2SO are labeled with Cy3 and the TPX-treated samples are labeled with Cy5. Replicates were labeled with reversed fluorescent labels to accommodate biases attributable to labeling. The Cy3 and Cy5 samples from each time point are combined and hybridized to UniGem […] arrays (Iyer, V. R., et al., (1999) Science 283, 83-87). This array contains cDNAs that represent approximately 7000 human genes.
Affymetrix oligonucleotide arrays. Total RNA and Poly (A)^+ RNA is isolated from TPX or Me2SO-treated H1299 cells essentially as it was for Incyte cDNA arrays. Total RNA is isolated from p21^waf1-10 cells that are grown in the presence or in the absence of tetracycline for 6, 12 and 48 h. 1st strand cDNA synthesis is performed using Superscript Choice System (Life Technologies) and a T7prFB-t30 primer, 5′-AAACGACGGCACA […]-t30-3′ (SEQ ID NO 1). Biotinylated complementary […] is made using the T7 Megascript system (Ambion, Austin, Tex.), substituting NTP labeling-mix containing biotinylated CTP and UTP. The labeled, purified cDNA is fragmented into <50 bp pieces at 95° C. in MgCl2 buffer to-increase the efficiency of hybridization to 20-mer oligos on the arrays. These labeled fragments are hybridized to HU6800 arrays (Affymetrix, Santa Clara, Calif.) as described previously (Lockhart, D. J., et al., (1996) Nat. Biotechnol. 14, 1675-1680; Alon, U. et al., (1999) Proc. Natl. Acad. Sci. U.S.A. 96, 6745-6750). This array represents approximately 7000 human genes. Briefly, samples are hybridized for 16 h at 45° C. with constant rotation at 60 rpm. The arrays are washed and stained using an Affymetrix fluidics station. The stain included streptavidin-phycoerythrin (10 μg/ml; Molecular Probes, Eugene, Oreg.) and biotinylated goat anti-streptavidin (3 μg/ml; Vector Laboratories, Burlingame, Calif.).
Imaging and Data Analysis. Affymetrix arrays are scanned with a HP argon-ion laser confocal microscope, with a 488 nm […] and detection at 570 nm. Affymetrix fold changes are calculated using GeneChip 3.3 software (Affymetrix). Incyte Pharmaceutical Inc. uses a laser confocal microscope to determine the fluorescence intensities from Incyte cDNA arrays. The fluorescent images (Cy3 and Cy5) from the Incyte cDNA arrays are normalized to total fluorescence from each channel for all genes for labeling efficiency differences and considered the normalized data is used for calculation of the gene expression ratios.

Compound: O=C(CCCCC[C@@H]1NC(=O)[C@H]2CCCCN2C(=O)[C@H](Cc2ccccc2)NC(=O)[C@H](Cc2ccccc2)NC1=O)C1CO1 (stereo partly drawn) [TPX, Trapoxin A] (cyclo(FF[dPip][Aoe(9ξ)]))
- Fold change, AB011146 KIAA0574, similar to an RNA binding protein (6 h): NC (<2 fold change in expression level (NC))
- Fold change, AF012086 RAN-binding protein 2-like (6 h): NC (<2 fold change in expression level (NC))
- Fold change, AF052578 RAN [RNA processing] (6 h): NC (<2 fold change in expression level (NC))
- Fold change, AF052578 RAN [Small GTP-ases] (6 h): NC (<2 fold change in expression level (NC))
- Fold change, AF109161 p35srj [Stress] (6 h): NC (<2 fold change in expression level (NC))
- Fold change, AF109161 p35srj [Transformation and TKRs] (6 h): NC (<2 fold change in expression level (NC))
- Fold change, AL047358 Insulin-induced gene 1 (6 h): 2.2 fold and 2.8 fold
- Fold change, AL047358 Spermidine/spermine N1-acetyltransferase (6 h): NC (<2 fold change in expression level (NC))
- Fold change, AL720570 Hepatoma-derived growth factor (6 h): NC (<2 fold change in expression level (NC))
- Fold change, D00596 Thymidylate synthetase (6 h): NC (<2 fold change in expression level (NC))
- Fold change, D16105 Leukocyte receptor tyrosine kinase (6 h): NC (<2 fold change in expression level (NC))
- Fold change, D50920 KIAA0130, thyroid receptor interacting protein (6 h): NC (<2 fold change in expression level (NC))
- Fold change, D85429 Hsp 40 (6 h): 4.0^8 fold and 3.9^8 fold
- Fold change, J03909 γ-IFN-inducible, IP-30 (6 h): 3.9^5 fold and 3.9^2 fold
- Fold change, L03840 Fibroblast growth factor receptor (6 h): 2.4* fold and 2.7* fold
- Fold change, L16991 Thymidylate kinase (6 h): NC (<2 fold change in expression level (NC))
- Fold change, L20010 Host cell factor (6 h): NC (<2 fold change in expression level (NC))
- Fold change, L32976 Mixed lineage kinase-3 (6 h): NC (<2 fold change in expression level (NC))
- Fold change, M12174 RhoB (6 h): 6.2^5 fold and 9.0^8 fold
- Fold change, M55153 Transglutaminase 2 (6 h): NC (<2 fold change in expression level (NC))
- Fold change, M58286 TNF Receptor (6 h): NC (<2 fold change in expression level (NC))
- Fold change, M59828 Hsp 70 (6 h): 3.5 fold and 4.1 fold
- Fold change, M76125 Tyrosine kinase receptor (TKR) axl (6 h): NC (<2 fold change in expression level (NC))
- Fold change, M80244 Human E16 (6 h): NC (<2 fold change in expression level (NC))
- Fold change, M80899 AHNAK nucleoprotein/desmoykin (6 h): NC (<2 fold change in expression level (NC))
- Fold change, M86406 Actinin (6 h): NC (<2 fold change in expression level (NC))
- Fold change, N33982 c-Yes-associated protein (6 h): NC (<2 fold change in expression level (NC))
- Fold change, NM006603 Stromal antigen 2 (6 h): NC (<2 fold change in expression level (NC))
- Fold change, U03057 Actin-bundling protein (6 h): NC (<2 fold change in expression level (NC))
- Fold change, U09578 MAKAP kinase (3 pk) (6 h): NC (<2 fold change in expression level (NC))
- Fold change, U09579 p21waf1 (1st line) (6 h): 6.1* fold and 6.6* fold
- Fold change, U09579 p21waf1 (2nd line) (6 h): 2.3 fold and 3.3 fold
- Fold change, U09937 Upa receptor (UpaR) (1st line) (6 h): NC (<2 fold change in expression level (NC))
- Fold change, U14750 Connective tissue growth factor (6 h): 3.1 fold and 3.6 fold
- Fold change, U15782 Cleavage stimulation factor 3 (6 h): NC (<2 fold change in expression level (NC))
- Fold change, U25804 Caspase-4 (6 h): NC (<2 fold change in expression level (NC))
- Fold change, U28749 HMGI-C (2nd line) (6 h): NC (<2 fold change in expression level (NC))
- Fold change, U28749 High mobility group phosphoprotein I-C (HMGI-C) (1st line) (6 h): NC (<2 fold change in expression level (NC))
- Fold change, U32519 GAP SH3 binding protein (6 h): 5.7^8 fold and 5.8^8 fold
- Fold change, U35113 Metastasis-associated 1, MTA-1 [Metastasis and invasion] (6 h): NC (<2 fold change in expression level (NC))
- Fold change, U35113 Metastasis-associated protein 1 (MTA-1) [Chromatin remodeling] (6 h): NC (<2 fold change in expression level (NC))
- Fold change, U48795 Cathelicidin antimicrobial peptide (6 h): NC (<2 fold change in expression level (NC))
- Fold change, U56833 VBP-1 (6 h): NC (<2 fold change in expression level (NC))
- Fold change, U77413 O-linked-N-acetylglucosamine transferase (6 h): NC (<2 fold change in expression level (NC))
- Fold change, U84214 Defender against cell death 1 (6 h): NC (<2 fold change in expression level (NC))
- Fold change, X03473 Histone H1 (0) [Chromatin remodeling] (6 h): 6.8^4 fold and 10.8^8 fold
- Fold change, X03473 Histone H1 (0) [Differentiation] (6 h): 6.8^4 fold and 10.8^8 fold
- Fold change, X04429 Plasminogen activator inhibitor 1 (6 h): NC (<2 fold change in expression level (NC))
- Fold change, X16396 NAD-dependent methylene teterahydrofolate dehydrogenase-methylenyltetrahydrofolate cyclohydrolase (6 h): NC (<2 fold change in expression level (NC))
- Fold change, X16665 Homeobox B2 (Hoxb2) (6 h): NC (<2 fold change in expression level (NC))
- Fold change, X37546 Inhibitor of apoptisis homolog B (6 h): NC (<2 fold change in expression level (NC))
- Fold change, X53586 Integrin α-6 (6 h): NC (<2 fold change in expression level (NC))
- Fold change, X55740 5′-nucleotidase (6 h): NC (<2 fold change in expression level (NC))
- Fold change, X59798 Cyclin D1 (6 h): NC (<2 fold change in expression level (NC))
- Fold change, X66029 TKR axl (6 h): NC (<2 fold change in expression level (NC))
- Fold change, X71874 MECL-1 (6 h): NC (<2 fold change in expression level (NC))
- Fold change, X78687 G9 sialidase (6 h): 3.0^8 fold and 3.4^8 fold
- Fold change, X89713 Death-associated protein-5 (6 h): NC (<2 fold change in expression level (NC))
- Fold change, A1581499 Apoptosis inhibitor 2 (12 h): NC (<2 fold change in expression level (NC))
- Fold change, AB011146 KIAA0574, similar to an RNA binding protein (12 h): 2.7 fold
- Fold change, AF012086 RAN-binding protein 2-like (12 h): 9.1 fold and 8.3 fold
- Fold change, AF052578 RAN [RNA processing] (12 h): NC (<2 fold change in expression level (NC))
- Fold change, AF052578 RAN [Small GTP-ases] (12 h): 2.9 fold and 2.0 fold
- Fold change, AF109161 p35srj [Stress] (12 h): 3.5 fold and 2.4 fold
- Fold change, AF109161 p35srj [Transformation and TKRs] (12 h): 3.5 fold and 2.4 fold
- Fold change, AL047358 Insulin-induced gene 1 (12 h): 7.9 fold and 6.4 fold
- Fold change, AL047358 Spermidine/spermine N1-acetyltransferase (12 h): 3.8 fold and 2.3 fold
- Fold change, AL720570 Hepatoma-derived growth factor (12 h): NC (<2 fold change in expression level (NC))
- Fold change, AW072424 5′-nucleotidase (12 h): −3.7 fold
- Fold change, D00596 Thymidylate synthetase (12 h): NC (<2 fold change in expression level (NC))
- Fold change, D16105 Leukocyte receptor tyrosine kinase (12 h): NC (<2 fold change in expression level (NC))
- Fold change, D50920 KIAA0130, thyroid receptor interacting protein (12 h): NC (<2 fold change in expression level (NC))
